# Legend:
# Zebrafish VDRβ = molecular target: T1, Zebrafish VDRβ (Danio rerio, UniProt Q1L673); assay: Competitive ligand binding assay ([3H]-1,25D3 displacement); set-up: 89.7 ng/well of full-length pSG5-VDR was co-transfected; expressed in transfected cells; host or cells: COS7; settings: lysate with VDR and human RXRWT; 4 nM [3H]-1,25D3; 18 hours at 4°C; Cheng-Prusoff; mean ± SEM
# T1 sequence (Q1L673 1-422): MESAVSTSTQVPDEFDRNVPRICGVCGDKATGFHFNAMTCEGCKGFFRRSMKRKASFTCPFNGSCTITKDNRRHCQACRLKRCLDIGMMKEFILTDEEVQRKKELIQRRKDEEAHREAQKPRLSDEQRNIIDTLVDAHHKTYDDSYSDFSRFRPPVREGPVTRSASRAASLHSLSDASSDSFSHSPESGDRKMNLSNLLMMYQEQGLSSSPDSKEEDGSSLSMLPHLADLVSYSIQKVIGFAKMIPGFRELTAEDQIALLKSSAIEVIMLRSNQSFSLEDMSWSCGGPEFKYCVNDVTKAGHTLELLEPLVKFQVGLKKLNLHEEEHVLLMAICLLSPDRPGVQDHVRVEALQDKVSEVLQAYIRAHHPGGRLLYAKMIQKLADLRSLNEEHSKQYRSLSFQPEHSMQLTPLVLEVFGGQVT
# Experimental: (§1) Recombinant VDR and human RXRWT lysates were prepared from transfected COS7 cells (American Type Culture Collection #CRL-1651) as described in detail previously. Lysates were diluted 10-fold in ice-cold assay buffer (10 mM Tris HCl, 150 mM KCl, 1 mM EDTA, 0.3 mM ZnCl2, 5 mM DTT, and 1x protease inhibitor cocktail (100 μM AEBSF, 80 nM aprotinin, 5 μM bestatin, 1.5 μM E-64 (for cysteine proteases), 2 μM leupeptin, 1 μM pepstatin A), pH 7.5). […] Reactions were shaken to mix and incubated for 18 hours at 4°C. Bound and free ligand were separated with the addition of 80 μL of ice-cold separation buffer (2.5% (w/v) activated charcoal, 0.5% (w/v) dextran, 100 mM Na2HPO4, 39 mM NaH2PO4, 150 mM NaCl, 15 mM NaN3, 10% gelatin, pH 7.0), and incubated at 4°C for 15 minutes with shaking every 5 minutes. Reactions were centrifuged at 5,000 x g for 5 minutes at 4°C, and 200 μL of the supernatant containing the VDR-bound ligands was removed for scintillation counting.
# (§2) Total binding was determined using lysate from cells transfected with VDR, and nonspecific binding was determined using lysate from cells transfected with the empty pSG5 vector. Specific binding was determined by subtracting non-specific binding counts from the total binding counts.
# Zebrafish VDRα = molecular target: T2, Zebrafish VDRα (Danio rerio, UniProt Q9PTN2); assay: as above; settings: lysate with VDR and human RXRWT; 4 nM [3H]-1,25D3; 18 hours at 4°C; Cheng-Prusoff; mean ± SEM
# T2 construct: 89.7 ng/well of full-length pSG5-VDR was co-transfected; expressed in transfected cells; host or cells: COS7
# T2 sequence (Q9PTN2 1-453): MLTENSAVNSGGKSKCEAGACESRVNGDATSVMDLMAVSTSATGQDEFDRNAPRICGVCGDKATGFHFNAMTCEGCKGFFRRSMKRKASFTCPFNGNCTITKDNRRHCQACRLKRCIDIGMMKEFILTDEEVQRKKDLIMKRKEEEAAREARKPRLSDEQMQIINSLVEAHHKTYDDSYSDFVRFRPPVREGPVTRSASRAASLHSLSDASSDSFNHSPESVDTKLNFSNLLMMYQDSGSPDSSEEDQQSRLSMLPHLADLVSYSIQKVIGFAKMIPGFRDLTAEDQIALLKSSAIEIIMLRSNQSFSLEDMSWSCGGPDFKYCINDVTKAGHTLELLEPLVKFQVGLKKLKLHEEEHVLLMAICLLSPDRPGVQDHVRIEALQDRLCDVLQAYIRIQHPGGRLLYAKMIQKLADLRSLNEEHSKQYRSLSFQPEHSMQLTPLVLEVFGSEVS
# T2 sequence (P19793 1-462 partner): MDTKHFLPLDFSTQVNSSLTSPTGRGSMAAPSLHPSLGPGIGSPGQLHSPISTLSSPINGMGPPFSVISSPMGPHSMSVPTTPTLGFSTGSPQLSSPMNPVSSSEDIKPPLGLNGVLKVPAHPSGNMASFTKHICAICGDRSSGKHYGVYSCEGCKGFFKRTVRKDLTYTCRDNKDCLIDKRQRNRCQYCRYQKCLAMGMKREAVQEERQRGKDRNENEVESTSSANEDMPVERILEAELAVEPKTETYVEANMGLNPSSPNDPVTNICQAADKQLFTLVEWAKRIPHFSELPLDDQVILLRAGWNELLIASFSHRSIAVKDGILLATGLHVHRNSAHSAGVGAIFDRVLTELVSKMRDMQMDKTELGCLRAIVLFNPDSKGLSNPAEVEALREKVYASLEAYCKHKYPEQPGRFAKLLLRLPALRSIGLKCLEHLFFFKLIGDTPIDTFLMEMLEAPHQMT
# Experimental: as §1, §2
# Medaka VDRα = Medaka VDRα (Oryzias latipes, UniProt B2CCA0); assay: as above; settings: lysate with VDR and human RXRWT; 4 nM [3H]-1,25D3; 18 hours at 4°C; Cheng-Prusoff; mean ± SEM
# Experimental: as §1, §2
# Bichir VDR = molecular target: T3, Bichir VDR (Polypterus senegalus, UniProt A0A088GJ14); assay: as above; settings: lysate with VDR and human RXRWT; 4 nM [3H]-1,25D3; 18 hours at 4°C; Cheng-Prusoff; mean ± SEM
# T3 sequence (A0A088GJ14 1-421): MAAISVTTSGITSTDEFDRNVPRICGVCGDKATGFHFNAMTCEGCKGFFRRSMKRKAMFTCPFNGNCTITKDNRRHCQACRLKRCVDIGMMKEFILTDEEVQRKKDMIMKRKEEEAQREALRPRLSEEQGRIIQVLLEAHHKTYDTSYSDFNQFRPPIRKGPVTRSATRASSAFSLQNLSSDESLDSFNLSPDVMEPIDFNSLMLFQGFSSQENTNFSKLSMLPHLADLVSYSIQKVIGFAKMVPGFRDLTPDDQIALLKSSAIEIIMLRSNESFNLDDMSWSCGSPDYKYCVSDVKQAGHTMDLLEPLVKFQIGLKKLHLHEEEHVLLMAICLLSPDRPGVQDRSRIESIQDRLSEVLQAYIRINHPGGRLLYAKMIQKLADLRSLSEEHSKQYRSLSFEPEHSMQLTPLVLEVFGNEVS
# T3 sequence (P19793 1-462 partner): T2 sequence (P19793 1-462 partner)
# Experimental: as §1, §2
# [1] = molecular target: all VDR orthologs/paralogs tested; assay: Competitive ligand binding assays, all receptors together; settings: range over all eight VDR orthologs/paralogs
# Experimental: Recombinant VDR and human RXRWT lysates were prepared from transfected COS7 cells (American Type Culture Collection #CRL-1651) as described in detail previously [32, 33]. Lysates were diluted 10-fold in ice-cold assay buffer (10 mM Tris HCl, 150 mM KCl, 1 mM EDTA, 0.3 mM ZnCl2, 5 mM DTT, and 1x protease inhibitor cocktail (100 μM AEBSF, 80 nM aprotinin, 5 μM bestatin, 1.5 μM E-64 (for cysteine proteases), 2 μM leupeptin, 1 μM pepstatin A), pH 7.5). […] Reactions were shaken to mix and incubated for 18 hours at 4°C. Bound and free ligand were separated with the addition of 80 μL of ice-cold separation buffer (2.5% (w/v) activated charcoal, 0.5% (w/v) dextran, 100 mM Na2HPO4, 39 mM NaH2PO4, 150 mM NaCl, 15 mM NaN3, 10% gelatin, pH 7.0), and incubated at 4°C for 15 minutes with shaking every 5 minutes. Reactions were centrifuged at 5,000 x g for 5 minutes at 4°C, and 200 μL of the supernatant containing the VDR-bound ligands was removed for scintillation counting.
# Medaka VDRα, sequence (B2CCA0 entry or part of it, one chain of several): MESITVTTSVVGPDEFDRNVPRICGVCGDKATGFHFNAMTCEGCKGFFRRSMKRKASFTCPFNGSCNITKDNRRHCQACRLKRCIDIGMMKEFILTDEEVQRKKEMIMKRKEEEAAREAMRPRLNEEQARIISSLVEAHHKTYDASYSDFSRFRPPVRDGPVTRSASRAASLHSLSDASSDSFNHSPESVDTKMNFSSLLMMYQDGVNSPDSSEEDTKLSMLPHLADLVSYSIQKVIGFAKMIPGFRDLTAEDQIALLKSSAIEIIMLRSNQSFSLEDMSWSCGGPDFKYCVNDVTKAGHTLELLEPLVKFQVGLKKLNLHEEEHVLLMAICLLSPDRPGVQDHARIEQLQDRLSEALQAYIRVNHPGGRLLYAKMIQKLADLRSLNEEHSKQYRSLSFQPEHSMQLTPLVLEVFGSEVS
structure (smiles),measurement,setting,value
"C[C@H](CCC(=O)O)[C@H]1CC[C@H]2[C@@H]3CC[C@@H]4C[C@H](O)CC[C@]4(C)[C@H]3CC[C@]12C [LCA, 5β-cholanic acid-3α-ol]",Ki,Zebrafish VDRβ,6.7 ± 1.9 µM
same,Ki,Zebrafish VDRα,5.5 ± 1.9 µM
same,Ki,Medaka VDRα,6.5 ± 1.9 µM
same,Ki,Bichir VDR,4.2 ± 0.4 µM
same,Ki,[1],4.2 to 9.5 µM

# From article PMC5152921, “Evolutionary and Functional Diversification of the Vitamin D Receptor-Lithocholic Acid Partnership” (PLoS ONE, 2016)
